Measurements: PMC4831868 (Cell reports, 2012)

Target: pHipA (Escherichia coli, UniProt P23874)
Experiment: ITC
Details: no binding

Chain of pHipA (P23874 whole entry, looked up): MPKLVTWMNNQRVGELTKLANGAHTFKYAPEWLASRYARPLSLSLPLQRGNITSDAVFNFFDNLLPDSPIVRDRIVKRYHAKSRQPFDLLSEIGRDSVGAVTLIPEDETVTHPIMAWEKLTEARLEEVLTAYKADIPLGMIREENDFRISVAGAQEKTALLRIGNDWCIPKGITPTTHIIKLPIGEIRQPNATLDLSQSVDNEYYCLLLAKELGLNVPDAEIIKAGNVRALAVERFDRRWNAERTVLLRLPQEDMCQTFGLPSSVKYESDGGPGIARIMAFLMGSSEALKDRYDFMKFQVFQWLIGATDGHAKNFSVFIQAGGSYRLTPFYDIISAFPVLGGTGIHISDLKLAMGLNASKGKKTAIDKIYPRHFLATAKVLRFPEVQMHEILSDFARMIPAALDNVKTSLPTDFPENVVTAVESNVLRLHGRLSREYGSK

Question: For `Nc1ncnc2c1ncn2[C@@H]1O[C@H](COP(=O)(O)OP(=O)(O)NP(=O)(O)O)[C@@H](O)[C@H]1O` [AMPPNP], which ITC is on record?
Answer: The ITC was “revealed no interaction between ATP or the nonhydrolyzable ATP analogue, AMPPNP”.
